The numbers were not newly measured in PMC11187573, “Identification of SARS-CoV-2 Mpro inhibitors through deep reinforcement learning for de novo drug design and computational chemistry approaches” (RSC Medicinal Chemistry, 2024), which cites them from elsewhere.

In the data set the test system is Mpro. Particulars: ML dataset, Origin COVID_Moonshot; ref COVID Moonshot; cited from earlier work.

The term IC50 denotes the midpoint of a concentration-inhibition curve. Consider `CS(=O)(=O)c1ccc(N2CCNCC2)cc1`, for which the IC50 was 91.6 µM. For the compound `O=C(Cc1cccc(Cl)c1)Nc1cnccc1-c1ccccc1`, the IC50 was 33 µM. Take `Cc1ccncc1NC(=O)Cc1cccc(F)c1`: the IC50 was 95.8 µM.

On to `Nc1cncc2c1CCCN2C(=O)Cc1cccc(Cl)c1`, for which the IC50 was 43.4 µM.

For the compound `Cc1ccncc1NC(=O)CN1C(=O)COc2ccc(Cl)cc21`, the half-maximal inhibitory concentration (IC50) was 49.4 µM. For the compound `O=C(c1cc(=O)[nH]c2ccccc12)N1CCN(c2ccccc2F)CC1`, the IC50 was 24 µM.

On to `O=C(Nc1cncc2c1CNCC2)C1CCOc2ccc(Cl)cc21` (centres unmarked), for which the IC50 is 6.16 µM. Regarding `Cc1ccncc1NC(=O)C1CCOc2ccc(Cl)cc21` (centres unmarked), the IC50 was 16 µM. With `CCCCOc1ccc(Cl)cc1CC(=O)Nc1cnccc1C`, the half-inhibitory concentration (IC50) was 20.2 µM. On to `Cn1c(=O)[nH]c2cncc(NC(=O)C3CCOc4ccc(Cl)cc43)c21` (centres unmarked), for which the IC50 is 20.7 µM. `Cc1ccncc1NC(=O)CN1CCC(C)CC1`: the half-inhibitory concentration (IC50) is 49.2 µM. As to `Cc1ccncc1CC(=O)Nc1cccc(Cl)c1`, the concentration for half-maximal inhibition (IC50) was 28.1 µM.

For `COc1ccccc1OCCNC(=O)c1cc(=O)[nH]c2cccc(C)c12`, the IC50 was 6.61 µM.

As for `O=C(c1cc(=O)[nH]c2ccccc12)N1CCN(c2cccc(Cl)c2)C(=O)C1`, the IC50 was 12.7 µM. Consider `Cc1ccncc1N1CCN(c2cccc(Cl)c2)C1=O`, for which the IC50 was 90.3 µM. For the compound `O=C(Cc1cccc(Cl)c1)Nn1cnc2ccccc21`, the half-inhibitory concentration (IC50) is 6.28 µM. As to `Cc1ccncc1NC(=O)Cc1cccc(Br)c1`, the concentration for half-maximal inhibition (IC50) was 18.3 µM. With `CCCC(C(=O)Nc1cnccc1C)c1cccc(Cl)c1` (centres unmarked), the 50% inhibitory concentration (IC50) is 11.4 µM.

For `O=C(Nc1cccnc1)N(CCC1CCCCC1)c1cccc(Cl)c1`, the concentration for half-maximal inhibition (IC50) is 3.18 µM.

In the case of `Cc1ccncc1NC(=O)Cc1cc(Cl)cc(NC2CCCC2O)c1` (centres unmarked), the IC50 was 29.3 µM. Turning to `Cc1ccncc1NC(=O)Cc1cc(Cl)cc(NC2CC2C(F)(F)F)c1` (centres unmarked), the 50% inhibitory concentration (IC50) was 22.5 µM. `O=C(Cc1cccc(Cl)c1)Nc1cncc2c1CCC2`: the IC50 is 4.91 µM. In the case of `Cc1ccncc1NC(=O)CC(C)C(C)C` (centres unmarked), the half-inhibitory concentration (IC50) is 99 µM.

Regarding `COc1ccccc1OCCNC(=O)c1cc(=O)[nH]c2ccccc12`, the IC50 was 5.35 µM. For the compound `O=C(Cc1cc(Cl)cc2c1OCC2)Nc1cncc2ccccc12`, the concentration for half-maximal inhibition (IC50) was 0.97 µM. On to `O=C(Cc1cccc(Cl)c1)Nn1nnc2ccccc21`, for which the concentration for half-maximal inhibition (IC50) was 18.4 µM.

Regarding `COc1cc(Cl)cc(CC(=O)Nc2cnccc2C)c1`, the IC50 is 40.2 µM.

In the case of `Cc1ccncc1NC(=O)Cc1cc(Cl)cc(-c2ccc(C)c(F)c2F)c1`, the IC50 is 44.1 µM. Regarding `O=C(Cc1cccc(Cl)c1)Nc1cncc2nc[nH]c12`, the IC50 was 10.6 µM.

In the case of `O=C(Cc1cccc(Cl)c1)Nc1cnc2ccccn12`, the IC50 was 8.03 µM.

As to `Cn1cncc1NC(=O)Cc1cccc(Cl)c1`, the half-inhibitory concentration (IC50) is 96.4 µM. Turning to `O=C(Cc1cncnc1)Nc1cc(F)cc(OC2CC(=O)N2)c1` (centres unmarked), the IC50 was 24.9 µM. In the case of `O=C(Cc1cccnc1)Nc1cccc(OC2CC(=O)N2)c1` (centres unmarked), the half-inhibitory concentration (IC50) is 88.3 µM. `Cc1cc(NC(=O)Cc2cncnc2)cc(OC2CC(=O)N2)c1` (centres unmarked): the IC50 is 34.3 µM. For `CC(=O)NCc1cc(Cl)cc(CC(=O)Nc2cnccc2C)c1`, the 50% inhibitory concentration (IC50) was 48.4 µM. As to `Cc1ccncc1NC(=O)Cc1cc(Cl)cc(OC2CC(=O)N2)c1` (centres unmarked), the 50% inhibitory concentration (IC50) is 2.28 µM.

As for `Cc1ccncc1NC(=O)C(C)c1cc(Cl)cc(OC2CC(=O)N2)c1` (centres unmarked), the IC50 is 82.6 µM. Regarding `Cc1ccncc1NC(=O)Nc1cccc(Cl)c1`, the IC50 is 55.1 µM. `Cc1ccncc1NC(=O)C(C)c1cccc(Cl)c1` (centres unmarked): the half-inhibitory concentration (IC50) is 19.6 µM.

Take `Cc1c(N)cncc1NC(=O)Cc1cccc(C#N)c1`: the IC50 is 24.1 µM. As to `Cc1ccncc1NC(=O)Cc1cccc(C#N)c1`, the IC50 was 52.6 µM. For the compound `Cc1ccncc1NC(=O)C(C)c1cccc(C#N)c1` (centres unmarked), the concentration for half-maximal inhibition (IC50) was 50.1 µM. As for `Cc1c(N)cncc1NC(=O)Cc1cccc(Cl)c1`, the IC50 is 6.21 µM. Turning to `Cc1ccncc1NC(=O)Cc1cccc(Cl)c1`, the IC50 is 19.2 µM. As to `O=C(Nc1cncc2ccccc12)C1COc2ccc(Cl)cc21` (racemic), the half-maximal inhibitory concentration (IC50) was 1.86 µM.

As to `CN(C(=O)Cn1nnc2ccccc21)c1ccc(Oc2ccc(C(F)(F)F)cn2)cc1` [AAR-POS-8a4e0f60-7], the IC50 is 37.8 µM. Consider `COc1cc(Cl)cc(OC(=O)Nc2cccnc2)c1` [AGN-NEW-891393a6-1], for which the IC50 is 4.1 µM. In the case of `CC(C)(C)c1ccc(N(C(=O)c2ccco2)C(C(=O)N2CCOCC2)c2cccnc2)cc1` (centres unmarked) [ALP-POS-0c0a3b93-1], the IC50 was 41 µM. With `CC(C)(C)c1ccc(N(C(=O)C2CCCO2)C(C(=O)NCCc2cccc(F)c2)c2cccnc2)cc1` (centres unmarked) [ALP-POS-02c6a514-17], the IC50 is 5.56 µM. As to `Cc1ccncc1C(C(=O)NCCc1cccc(F)c1)N(C(=O)c1ccco1)c1ccc(C(C)(C)C)cc1` (centres unmarked) [ALP-POS-02c6a514-44], the IC50 was 0.112 µM.

Turning to `CC(C)(C)c1ccc(N(C(=O)c2ncc[nH]2)C(C(=O)NCCc2cccc(F)c2)c2cccnc2)cc1` (centres unmarked) [ALP-POS-02c6a514-46], the IC50 was 5.29 µM. For `CC(C)(C)c1ccc(N(C(=O)c2nccs2)C(C(=O)NCCc2cccc(F)c2)c2cccnc2)cc1` (centres unmarked) [ALP-POS-02c6a514-49], the IC50 is 0.8 µM.

As for `CC(C)(C)c1ccc(N(C(=O)c2cocn2)C(C(=O)NCCc2cccc(F)c2)c2cccnc2)cc1` (centres unmarked) [ALP-POS-02c6a514-50], the IC50 is 0.557 µM. In the case of `CC(C)(C)c1ccc(N(C(=O)c2ccn[nH]2)C(C(=O)NCCc2cccc(F)c2)c2cccnc2)cc1` (centres unmarked) [ALP-POS-02c6a514-52], the concentration for half-maximal inhibition (IC50) is 1.78 µM. In the case of `CC(C)(C)c1ccc(N(C(=O)c2ccco2)C(C(=O)NCCN2CCOCC2)c2cccnc2)cc1` (centres unmarked) [ALP-POS-02c6a514-55], the IC50 is 2.19 µM.

Consider `CC(C)(C)c1ccc(N(C(=O)c2ccco2)C(C(=O)Nc2ccccc2)c2cccnc2)cc1` (centres unmarked) [ALP-POS-02c6a514-56], for which the IC50 was 11.2 µM.

Consider `CC(C)(C)c1ccc(N(C(=O)c2ccco2)C(C(=O)NCc2ccccc2)c2cccnc2)cc1` (centres unmarked) [ALP-POS-02c6a514-57], for which the 50% inhibitory concentration (IC50) was 4.36 µM. Consider `O=C(C[C@@]1(C(=O)Nc2cncc3ccccc23)CCOc2ccc(Cl)cc21)N1CCN(C2CCOC2)CC1` (some centres unmarked) [ALP-POS-2da19ca7-2], for which the IC50 is 46.5 µM. For the compound `O=C(Cc1cc(Cl)cc(OC2CC(=O)N2)c1)Nc1cncc2ccccc12` (centres unmarked) [ALP-POS-3b848b35-2, O=C(Cc1cc(Cl)cc(OC2CC(=O)N2)c1)Nc1cncc2ccccc12, reference compound], the IC50 is 0.18 µM. As for `COc1c(Cl)cccc1OCCNC(=O)c1cc(=O)[nH]c2ccccc12` [ALP-POS-3fc1724e-1], the IC50 was 11.5 µM. In the case of `O=C(CC1(C(=O)Nc2cncc3ccccc23)CCOc2ccc(Cl)cc21)N1CCN(C2CCOC2)CC1` (centres unmarked) [ALP-POS-5bb456a5-7], the concentration for half-maximal inhibition (IC50) was 6.68 µM. As for `O=C(C[C@]1(C(=O)Nc2cncc3ccccc23)CCOc2ccc(Cl)cc21)N1CCN(C2CCOC2)CC1` (some centres unmarked) [ALP-POS-5bb456a5-8], the IC50 was 1.99 µM.

On to `CN(C)c1ccc(N(Cc2ccccc2)C(=O)Cn2nnc3ccccc32)cc1` [ALP-POS-6d04362c-1], for which the IC50 is 3.31 µM. Take `O=C(Cn1nnc2ccccc21)N(Cc1ccsc1)c1ccc(N2CCOCC2)cc1` [ALP-POS-6d04362c-4]: the IC50 was 16.5 µM. As for `CN(C)c1ccc(N(Cc2cscn2)C(=O)Cn2nnc3ccccc32)cc1` [ALP-POS-87c86d55-1], the IC50 is 9.57 µM.

For `CCC(=O)Nc1ccc(N(Cc2cscn2)C(=O)Cn2nnc3ccccc32)cc1` [ALP-POS-87c86d55-2], the IC50 was 35.5 µM.

With `CC(C)(C)c1ccc(N(C(=O)c2cocn2)C(C(=O)NCc2cccnc2)c2cccnc2)cc1` (centres unmarked) [ALP-POS-88a7a97e-4], the IC50 is 25.3 µM. Regarding `COC(=O)C(C)NC(=O)C(c1cccnc1)N(C(=O)c1cocn1)c1ccc(C(C)(C)C)cc1` (centres unmarked) [ALP-POS-88a7a97e-5], the half-inhibitory concentration (IC50) was 7.18 µM. `COC(=O)[C@@H]1CC[C@H](NC(=O)C(c2cccnc2)N(C(=O)c2cocn2)c2ccc(C(C)(C)C)cc2)C1` (some centres unmarked) [ALP-POS-88a7a97e-6]: the IC50 is 2.38 µM.

With `CC(C)(C)c1ccc(N(C(=O)c2cocn2)C(C(=O)NC2CCOCC2)c2cccnc2)cc1` (centres unmarked) [ALP-POS-88a7a97e-9], the IC50 was 3.9 µM. With `COC(=O)C1CC(NC(=O)C(c2cccnc2)N(C(=O)c2cocn2)c2ccc(C(C)(C)C)cc2)C1` (centres unmarked) [ALP-POS-88a7a97e-15], the IC50 is 3.99 µM. In the case of `CC(C)(C)c1ccc(N(C(=O)c2cocn2)C(C(=O)NCC2CCOC2)c2cccnc2)cc1` (centres unmarked) [ALP-POS-88a7a97e-26], the IC50 is 5.42 µM. Consider `CC(C)(C)c1ccc(N(C(=O)c2cocn2)C(C(=O)NCC2CCCO2)c2cccnc2)cc1` (centres unmarked) [ALP-POS-88a7a97e-27], for which the IC50 is 5.15 µM. For `CC(C)(C)c1ccc(N(C(=O)c2cocn2)C(C(=O)NC2CCOC2)c2cccnc2)cc1` (centres unmarked) [ALP-POS-88a7a97e-30], the concentration for half-maximal inhibition (IC50) is 2.77 µM. In the case of `COCCNC(=O)C(c1cccnc1)N(C(=O)c1cocn1)c1ccc(C(C)(C)C)cc1` (centres unmarked) [ALP-POS-88a7a97e-31], the IC50 was 8.46 µM. Consider `COC(=O)CNC(=O)C(c1cccnc1)N(C(=O)c1cocn1)c1ccc(C(C)(C)C)cc1` (centres unmarked) [ALP-POS-88a7a97e-33], for which the IC50 was 10.8 µM. `CC(C)(C)c1ccc(N(C(=O)c2cocn2)C(C(=O)NC2COC2)c2cccnc2)cc1` (centres unmarked) [ALP-POS-88a7a97e-34]: the IC50 is 4.07 µM. As to `COC(=O)C1(NC(=O)C(c2cccnc2)N(C(=O)c2cocn2)c2ccc(C(C)(C)C)cc2)CCCC1` (centres unmarked) [ALP-POS-88a7a97e-36], the IC50 is 5.26 µM. Take `CC(C)(C)c1ccc(N(C(=O)c2cocn2)C(C(=O)NC2CC(F)(F)C2)c2cccnc2)cc1` (centres unmarked) [ALP-POS-88a7a97e-39]: the 50% inhibitory concentration (IC50) was 2.35 µM. Take `COc1ccc(NC(=O)C(c2cccnc2)N(C(=O)c2cocn2)c2ccc(C(C)(C)C)cc2)cn1` (centres unmarked) [ALP-POS-88a7a97e-41]: the IC50 is 5.37 µM. As for `Cc1ccc(S(=O)(=O)CNC(=O)C(c2cccnc2)N(C(=O)c2cocn2)c2ccc(C(C)(C)C)cc2)cc1` (centres unmarked) [ALP-POS-88a7a97e-42], the IC50 was 62.9 µM.

In the case of `CC(C)(C)c1ccc(N(C(=O)c2cocn2)C(C(=O)NCC(=O)OCc2ccccc2)c2cccnc2)cc1` (centres unmarked) [ALP-POS-88a7a97e-44], the concentration for half-maximal inhibition (IC50) was 9.92 µM. For the compound `CC(C)(C)c1ccc(N(C(=O)c2cocn2)C(C(=O)NCCN2CCOCC2)c2cccnc2)cc1` (centres unmarked) [ALP-POS-88a7a97e-47], the half-inhibitory concentration (IC50) was 82.5 µM.
